Laboratory results published in PMC11071649, “Synthesis and Selective Anticancer Activity Evaluation of 2-phenylacrylonitrile Derivatives as Tubulin Inhibitors” (Current Medicinal Chemistry, 2024).
Like-named read-outs stand apart in the source and are kept apart here.

What was measured:
Format in all cases: cell-based, human
[1] = test system: MCF-7 breast cancer cell; test: MTT anti-proliferative assay, MCF-7; details: for IC50: MTT, 48 h
Experimental: (§1) The anti-proliferation activities of the synthesized analogs were assessed by an in vitro MTT assay conducted on thirteen human cell lines. Their cytotoxic activities were evaluated by measuring the inhibition of net cell growth. […]
(§2) 1.6. Cell lines and cell culture
(§3) MTT was purchased from Sigma-Aldrich Co. (St. Louis, MO, USA). The PI and Annexin V-FITC apoptosis detection kit were purchased from Invitrogen (Eugene, OR, USA). All human cell lines were used in this study. […]
(§4) cell, MCF-7 breast cancer cell, MCF-10A normal breast cell, Raji B lymphoblastoid cell and diffuse large B-cell lymphoma SU-DHL-10 cell were initially purchased from American Type Culture Collection (ATCC, Manassas, Virginia). media, DMEM, and FBS were provided from Gibco Company.
(§5) 1.7. Cell growth inhibition assay (MTT assay)
(§6) The experiment was carried out according to the method of reference. Briefly, cells were plated in 96-well plates at a den- […]
(§7) the anti-proliferative activities were determined by MTT assay. […]
(§8) (Becton-Dickinson, Franklin Lakes, NJ). […]

[2] = test system: L-02 normal liver cell; test: MTT assay, L-02 normal cells; details: 48 h
Experimental: as §1, §2, §3, §4, §5, §6, §7, §8

[3] = test system: AGS gastric cancer cell; test: MTT anti-proliferative assay, AGS; details: for IC50: MTT, 48 h
Experimental: as §1, §2, §3, §4, §5, §6, §7, §8

[4] = test system: SGC-7901 early differentiation gastric cancer cell; test: MTT anti-proliferative assay, SGC-7901; details: for IC50: MTT, 48 h
Experimental: as §1, §2, §3, §4, §5, §6, §7, §8

[5] = test system: Raji B lymphoblastoid cell; test: MTT anti-proliferative assay, Raji
Experimental: as §1, §2, §3, §4, §5, §6, §7, §8

[6] = test system: MCF-10A normal breast cell; test: MTT assay, MCF-10A normal cells; details: 48 h
Experimental: as §1, §2, §3, §4, §5, §6, §7, §8

[7] = test system: HCT116 colectal cancer cell; test: MTT anti-proliferative assay, HCT116; details: for IC50: MTT, 48 h
Experimental: as §1, §2, §3, §4, §5, §6, §7, §8

[8] = test system: diffuse large B-cell lymphoma SU-DHL-10 cell; test: MTT anti-proliferative assay, SU-DHL-10
Experimental: as §1, §2, §3, §4, §5, §6, §7, §8

[9] = test system: MGC-803 late stage differentiation gastric cancer cell; test: MTT anti-proliferative assay, MGC-803; details: for IC50: MTT, 48 h
Experimental: as §1, §2, §3, §4, §5, §6, §7, §8

[10] = test system: HepG2 hepatoma cell; test: MTT anti-proliferative assay, HepG2; details: for IC50: MTT, 48 h, read-out: IC50 HepG-2
Experimental: as §1, §2, §3, §4, §5, §6, §7, §8

[11] = test system: HeLa cervical cancer cell; test: MTT anti-proliferative assay, HeLa; details: for IC50: MTT, 48 h
Experimental: as §1, §2, §3, §4, §5, §6, §7, §8

[12] = test system: BEL-7402 liver cancer cell; test: MTT anti-proliferative assay, BEL-7402; details: for IC50: MTT, 48 h
Experimental: as §1, §2, §3, §4, §5, §6, §7, §8

[13] = test system: A549 lung cancer cell; test: MTT anti-proliferative assay, A549; details: for IC50: MTT, 48 h
Experimental: as §1, §2, §3, §4, §5, §6, §7, §8

[14] = MTT, 48 h, read-out: IC50 SU-DHL-10

Row | IC50 [1] [µM] | IC50 [3] [µM] | IC50 [4] [µM] | IC50 ([5]; MTT, 48 h, read-out: IC50 Raji) [µM] | IC50 ([7]; read-out: IC50 HCT-116) [µM] | IC50 [8, 14] [µM] | IC50 [9] [µM] | IC50 [10] [µM] | IC50 [11] [µM] | IC50 [12] [µM] | IC50 [13] [µM] | SMILES | IC50 [2] [µM] | IC50 [6] [µM] | SI (selectivity index), IC50 (L-02)/IC50 (AGS) [3] | SI (selectivity index), IC50 (L-02)/IC50 (Raji) [5] | other results
1 | > 100 | > 100 | > 100 | > 100 | > 100 | > 100 | > 100 | > 100 | > 100 | > 100 | > 100 | N#C/C(=C\c1ccco1)c1ccc(OC(F)(F)F)cc1 [Compound 1a3a] | > 100 | > 100 | – | – | –
2 | > 100 | 4.5 ± 2 | 8.1 ± 2.9 | 43.1 ± 4.5 | 25 ± 0.5 | 29.3 ± 2 | 11.1 ± 0.3 | 38.2 ± 0.1 | 61.7 ± 3.3 | 39.4 ± 6.1 | > 100 | Cc1ccc(/C=C(\C#N)c2cccc(OC(F)(F)F)c2)cc1 [Compound 1b2e] | 54.2 ± 12.3 | > 100 | > 11.9 | > 1.2 | SI (selectivity index), IC50 (L-02)/IC50 (SGC-7901) [4]: > 6.6; SI (selectivity index), IC50 (L-02)/IC50 (HCT-116) [7]: > 2.1; SI (selectivity index), IC50 (L-02)/IC50 (SU-DHL-10) [8]: > 1.8; SI (selectivity index), IC50 (L-02)/IC50 (MGC-803) [9]: > 4.8; SI (selectivity index), IC50 (L-02)/IC50 (HepG-2) [10]: > 1.4; SI (selectivity index), IC50 (L-02)/IC50 (BEL-7402) [12]: > 1.3
3 | > 100 | > 100 | > 100 | 45.1 ± 15.6 | > 100 | > 100 | > 100 | > 100 | > 100 | > 100 | > 100 | CCN(CC)c1ccc(/C=C(\C#N)c2ccc(OC(F)(F)F)cc2)cc1 [Compound 1a2i] | > 100 | > 100 | – | > 2.2 | –
4 | 55.2 ± 2.8 | 18.6 ± 3 | 56.4 ± 9.7 | 55.1 ± 3.2 | 20.2 ± 1.7 | > 100 | 35.2 ± 2.8 | 20.7 ± 1.4 | 72.3 ± 2.4 | > 100 | 65.8 ± 8.9 | N#C/C(=C\c1ccc(Cl)cc1)c1ccc(OC(F)(F)F)cc1 [Compound 1a2c] | > 100 | > 100 | > 5.3 | > 1.8 | SI (selectivity index), IC50 (MCF-10A)/IC50 (MCF-7) [1]: > 1.8; SI (selectivity index), IC50 (L-02)/IC50 (SGC-7901) [4]: > 1.7; SI (selectivity index), IC50 (L-02)/IC50 (HCT-116) [7]: > 4.9; SI (selectivity index), IC50 (L-02)/IC50 (MGC-803) [9]: > 2.8; SI (selectivity index), IC50 (L-02)/IC50 (HepG-2) [10]: > 4.8; SI (selectivity index), IC50 (L-02)/IC50 (HeLa) [11]: > 1.3; SI (selectivity index), IC50 (L-02)/IC50 (A549) [13]: > 1.5
5 | > 100 | 87.2 ± 5.9 | > 100 | > 100 | > 100 | > 100 | > 100 | > 100 | > 100 | > 100 | > 100 | CCCOc1ccc(/C=C(\C#N)c2ccc(OC(F)(F)F)cc2)cc1 [Compound 1a2m] | > 100 | > 100 | > 1.4 | – | –
6 | > 100 | 43.8 ± 21.8 | 61.7 ± 0.4 | > 100 | > 100 | > 100 | 49.3 ± 0.3 | 72.9 ± 9.9 | > 100 | 44.8 ± 10.6 | > 100 | CCc1ccc(/C=C(\C#N)c2cccc(OC(F)(F)F)c2)cc1 [Compound 1b2f] | > 100 | > 100 | > 2.2 | – | SI (selectivity index), IC50 (L-02)/IC50 (SGC-7901) [4]: > 1.6; SI (selectivity index), IC50 (L-02)/IC50 (MGC-803) [9]: > 2.0; SI (selectivity index), IC50 (L-02)/IC50 (HepG-2) [10]: > 1.9; SI (selectivity index), IC50 (L-02)/IC50 (BEL-7402) [12]: > 2.2

Further lines, the compound ahead of its results:

Row | SMILES | IC50 [1] [µM] | IC50 [3] [µM] | IC50 [4] [µM] | IC50 ([5]; MTT, 48 h, read-out: IC50 Raji) [µM] | IC50 ([7]; read-out: IC50 HCT-116) [µM] | IC50 [8, 14] [µM] | IC50 [9] [µM] | IC50 [10] [µM] | IC50 [11] [µM] | IC50 [12] [µM] | IC50 [13] [µM] | IC50 [2] [µM] | IC50 [6] [µM] | SI (selectivity index), IC50 (L-02)/IC50 (AGS) [3] | SI (selectivity index), IC50 (L-02)/IC50 (Raji) [5] | other results
7 | COc1cc(/C=C(\C#N)c2ccc(C(F)(F)F)cc2)cc(OC)c1OC [Compound 1f2u] | > 100 | > 100 | > 100 | > 100 | > 100 | > 100 | > 100 | > 100 | > 100 | > 100 | > 100 | > 100 | 92.5 ± 10.2 | – | – | –
8 | N#C/C(=C\c1ccco1)c1ccc(C(F)(F)F)cc1 [Compound 1f3a] | > 100 | > 100 | > 100 | > 100 | > 100 | > 100 | > 100 | > 100 | > 100 | > 100 | > 100 | > 100 | > 100 | – | – | –
9 | Cc1ccc(/C=C(\C#N)c2ccc(OC(F)(F)F)cc2)cc1 [Compound 1a2e] | > 100 | 30.8 ± 7.9 | > 100 | > 100 | > 100 | > 100 | > 100 | > 100 | > 100 | > 100 | > 100 | > 100 | > 100 | > 3.2 | – | –
10 | CCCCCCOc1ccc(/C=C(\C#N)c2ccc(OC(F)(F)F)cc2)cc1 [Compound 1a2p] | > 100 | > 100 | > 100 | > 100 | > 100 | > 100 | > 100 | > 100 | > 100 | > 100 | > 100 | > 100 | > 100 | – | – | –
11 | COc1cccc(-n2cc(/C=C(\C#N)c3ccc(OC(F)(F)F)cc3)nn2)c1 [Compound 7b] | – | – | – | – | – | – | – | – | – | – | – | – | – | – | – | IC50 ([1]; Homo sapiens, MCF7): > 100 µM; IC50 ([2]; Homo sapiens): > 100 µM; IC50 ([3]; Homo sapiens): > 100 µM; IC50 ([4]; Homo sapiens, SGC-7901): > 100 µM; IC50 ([5]; Homo sapiens, Raji, MTT, 48 h, read-out: IC50 Raji): > 100 µM; IC50 ([6]; Homo sapiens, MCF-10A): > 100 µM; IC50 ([7]; Homo sapiens, HCT-116): > 100 µM; IC50 ([8]; Homo sapiens, SU-DHL10, MTT, 48 h, read-out: IC50 SU-DHL-10): > 100 µM; IC50 ([9]; Homo sapiens, MGC-803): > 100 µM; IC50 ([10]; Homo sapiens, HepG2): > 100 µM; IC50 ([11]; Homo sapiens, HeLa): > 100 µM; IC50 ([12]; Homo sapiens, Bel-7402): > 100 µM; IC50 ([13]; Homo sapiens, A549): > 100 µM
12 | N#C/C(=C\c1ccc(N2CCOCC2)cc1)c1cccc(OC(F)(F)F)c1 [Compound 1b2i] | > 100 | 23.9 ± 2.7 | 46 ± 4.9 | 23.7 ± 2.1 | 12.3 ± 1.6 | 53.6 ± 7.5 | 10.8 ± 2.9 | 23.5 ± 4.3 | > 100 | 13 ± 1.1 | > 100 | 28.5 ± 0.8 | 79.6 ± 5.7 | > 1.1 | > 1.1 | SI (selectivity index), IC50 (L-02)/IC50 (HCT-116) [7]: > 2.3; SI (selectivity index), IC50 (L-02)/IC50 (MGC-803) [9]: > 2.6; SI (selectivity index), IC50 (L-02)/IC50 (HepG-2) [10]: > 1.2; SI (selectivity index), IC50 (L-02)/IC50 (BEL-7402) [12]: > 2.1
13 | N#C/C(=C\c1ccc(/C=C(\C#N)c2ccc(C(F)(F)F)cc2)cc1)c1ccc(C(F)(F)F)cc1 [Compound 1f2w] | > 100 | > 100 | > 100 | – | > 100 | – | > 100 | > 100 | > 100 | > 100 | > 100 | > 100 | > 100 | – | > 2083 | IC50 ([5]; read-out: IC50 Raji cells): 0.048 µM; SI (selectivity index), IC50 (L-02)/IC50 (SU-DHL-10) [8]: > 4545; IC50 ([8]; read-out: IC50 SU-DHL-10 cells): 0.022 µM
14 | N#C/C(=C\c1ccc(F)cc1)c1ccc(OC(F)(F)F)cc1 [Compound 1a2b] | > 100 | 13.2 ± 3.3 | > 100 | 49 ± 7.4 | 23.5 ± 4.6 | 38.8 ± 3.7 | 37.4 ± 5.8 | > 100 | – | 15 ± 2.7 | > 100 | > 100 | > 100 | – | – | –
